In test [1] the target is T1, HmqD (Burkholderia ambifaria, UniProt Q0B3G0).
T1 construct: gene Bamb_5766; recombinant HmqD overexpressed in live E. coli BL21
Kind of test: competitive live-cell activity-based labelling against probe CAA, in-gel fluorescence.

Test [2] deals with T1, HmqD. Kind of test: live-cell activity-based labelling with click chemistry and in-gel fluorescence; proteomic identification of the modified site. The text has this: live-cell activity-based labelling with click chemistry and in-gel fluorescence; proteomic identification of the modified site on HmqD | identified as site of modification by probe CAA only the active site cysteine C114

Broadly, the IC50 is the point on the concentration scale where inhibition reaches its midpoint.

SMILES strings stand for the structures.

T1 sequence (Q0B3G0 entry or part of it): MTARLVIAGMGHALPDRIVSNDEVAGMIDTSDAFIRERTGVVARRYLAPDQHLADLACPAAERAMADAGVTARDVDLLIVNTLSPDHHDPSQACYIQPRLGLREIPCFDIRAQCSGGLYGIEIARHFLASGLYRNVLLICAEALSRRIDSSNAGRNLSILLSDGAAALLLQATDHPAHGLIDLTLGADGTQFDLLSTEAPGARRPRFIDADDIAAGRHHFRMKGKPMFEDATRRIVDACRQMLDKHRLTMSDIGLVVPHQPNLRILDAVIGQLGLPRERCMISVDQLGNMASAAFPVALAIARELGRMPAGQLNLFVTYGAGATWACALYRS

On HmqD [1], `Nc1ccc(I)cc1C(=O)CCl` [compound 4] returned an IC50 of 100 nM.
The same measure, in the same setting: as for `O=C(CCl)c1ccccc1` [compound 9], the figure is 200 nM.
Turning to `C#CCCC(=O)NCc1ccc(N)c(C(=O)CCl)c1` [CAA], the “live-cell activity-based labelling with click chemistry and in-gel fluorescence;” value at HmqD [2] is listed as 15 nM.
On HmqD [1], `Nc1cc2c(cc1C(=O)CCl)OCCO2` [compound 7] gave an IC50 of 200 nM.

The values are drawn from paper PMC8153077, “Inhibiting quinolone biosynthesis of Burkholderia” (Chemical Science, 2021).
